SMILES strings stand for the structures. In brackets after ≈: the same amount, converted by molar mass.

The conditions of this data set: buffer; pH 7.4; 200.0 µM.
In general, solubility (kinetic) refers to solubility judged after dilution from a stock solution rather than from solid. The compound `COC(=O)c1ccccc1NC(=O)c1cc[n+]([O-])cc1` displayed a solubility (kinetic) of 36.2 µg/mL (≈ 133 µM).
The compound `Cc1cc(NC(=O)COC(=O)C2CCC(=O)N2)c([N+](=O)[O-])cc1C` (stereo not drawn) displayed a solubility (kinetic) of over 50.3 µg/mL.
The compound `O=C(CCCOc1ccccc1)Nc1ccc(Cl)c(S(=O)(=O)N2CCOCC2)c1` registered a solubility (kinetic) of 25.7 µg/mL (≈ 58.6 µM).
For `Cc1ccnc(Nc2nc(-c3ccc(O)cc3O)cs2)c1`, the kinetic solubility was 2 µg/mL (≈ 6.68 µM).
The same measure for `O=[N+]([O-])c1ccc(Cl)c([N+](=O)[O-])c1`: 13.8 µg/mL (≈ 68.1 µM); for `CCOc1cccc(CN2CCC(CCC(=O)NC3CC3)CC2)c1O`: 44.4 µg/mL (≈ 128 µM); for `NC(=O)C1CCCN(C(=O)CCC(=O)c2cccs2)C1` (stereo not drawn): over 44.2 µg/mL.
Then `COC(=O)c1cc(S(=O)(=O)N2CCCCCC2)cn1C`, with 38.8 µg/mL (≈ 129 µM); and `Cc1ccccc1/C=C\c1nc(O)c([N+](=O)[O-])c(=O)[nH]1`, with over 41 µg/mL.
Then `CCOC(=O)c1sc(=S)n(-c2ccc(C)cc2)c1N`, with 1.4 µg/mL (≈ 4.76 µM).
With `COc1ccc(S(=O)(=O)NCC(=O)NCCc2ccc(OC)c(OC)c2)cc1`, the solubility (kinetic) is over 61.3 µg/mL.
In turn, `O=C(NCCc1ccccc1)c1coc(=O)c(Br)c1` yielded a kinetic solubility of 9.8 µg/mL (≈ 30.4 µM).
Then `Cn1c(C(=O)N2CCOCC2)cc2c(=O)n3ccccc3nc21`, with over 46.8 µg/mL; and `O=C1CC(c2ccccc2)=Nc2ccc(Br)cc2N1`, with 0.9 µg/mL (≈ 2.86 µM).
The same measure for `Oc1ccc(C(=S)N2CCN(c3cccc(Cl)c3)CC2)cc1`: 1.3 µg/mL (≈ 3.91 µM); for `O=C(Cc1ccc(Cl)cc1)NCCc1ccc(F)cc1`: 19.4 µg/mL (≈ 66.5 µM).
The same measure for `CCC/C(O)=C1\C(=O)CCCC1=NCCc1c(C)[nH]c2ccc(C)cc12`: 0.4 µg/mL (≈ 1.13 µM).
With `CCCNC(=O)c1noc2c1CCc1cc(OC)ccc1-2`, the solubility (kinetic) came to 5.6 µg/mL (≈ 19.6 µM).
Then `Cc1ccc(C(=O)NC(=S)NCc2ccccc2)cc1`, with under 0.3 µg/mL; and `COc1ccc(NC(=O)Nc2cccc3ccccc23)cc1OC`, with 0.4 µg/mL (≈ 1.24 µM).
In the case of `Cc1cccc(C(=O)NCC(=O)NC2CCC(C)CC2)c1` (stereo not drawn), the kinetic solubility is 10.5 µg/mL (≈ 36.4 µM).
The same measure for `COc1ccc(N2CCN(CC(=O)Nc3nc(C)cs3)CC2)cc1`: 49.6 µg/mL (≈ 143 µM); for `COc1c(C)cc(C(=O)C2CCCN(C(=O)c3cc4nc(C)cc(C)n4n3)C2)cc1C` (stereo not drawn): over 63.1 µg/mL; for `N/C(=N\c1nc2ccccc2o1)NC(=O)c1cccc(Cl)c1`: under 0.2 µg/mL.
Then `CC(C)(C)c1ccc(C(=O)NCC(=O)N2CCCCCC2)cc1`, with over 47.5 µg/mL; and `NS(=O)(=O)c1ccc(S(=O)(=O)c2ccccc2)nc1`, with over 44.7 µg/mL.
Then `Cc1ccc(S(=O)(=O)N(C)c2ccc3ccccc3c2)cc1`, with 1.6 µg/mL (≈ 5.14 µM); and `CCOC(=O)c1cc(C)nc(N2CCCCC2)c1C#N`, with 11.5 µg/mL (≈ 42.1 µM); and `O=C(O)C1CCN(C(=O)CCc2ccccc2)CC1`, with over 39.2 µg/mL.
For `O=C(CCn1c(=O)oc2cc(Cl)ccc21)Nc1ccc(O)cc1`, the solubility (kinetic) was over 49.9 µg/mL.
Then `Cc1nc2c(C#N)c[nH]n2c(=O)c1CCO`, with over 32.7 µg/mL; and `CCCCCCCCn1c(=O)c(C(=O)OC)c(N)c2ccccc21`, with 0.9 µg/mL (≈ 2.72 µM).
As to `CCc1ccc(NS(=O)(=O)c2ccc3oc(=O)ccc3c2)cc1`, the solubility (kinetic) was 41.2 µg/mL (≈ 125 µM).
Take `O=C(CCl)Nc1sccc1C(=O)c1ccccc1`: the solubility (kinetic) was found to be 3.6 µg/mL (≈ 12.9 µM). Compared with the last compound, the solubility kinetic is about 11-fold lower.
Then `S=C(NC1CC1)N1CCN(C(=S)NC2CC2)CC1`, with over 42.7 µg/mL; and `O=C(Nc1cccnc1)OC1CCCC1`, with 29.5 µg/mL (≈ 143 µM); and `COC(=O)Cc1nc(Nc2ccccc2)sc1C`, with 34.3 µg/mL (≈ 131 µM).
Then `CCOC(=O)c1cc(Sc2ccccc2N)cc(C(=O)OCC)n1`, with under 0.4 µg/mL; and `Cc1ccc(NC(=O)C2CCN(C(=O)c3cccs3)CC2)cc1`, with over 49.3 µg/mL; and `CC(C)[C@H](NC(=O)c1ccccc1)C(=O)OCC(=O)NCc1ccc2c(c1)OCO2`, with over 61.9 µg/mL.
Regarding `C=Cn1cc[n+](CC(=O)c2ccc(Br)s2)c1.[Br-]`, the solubility (kinetic) is 53 µg/mL.
Then `CC(C)(C)c1ccc(C(=O)NCCOc2ccccc2)cc1`, with 2.2 µg/mL (≈ 7.4 µM).
`Cc1cc(C)c[n+](C(C)C(=O)c2ccc(Cl)cc2)c1.[Br-]` (stereo not drawn) registered a kinetic solubility of over 53.2 µg/mL.
The same measure for `c1ccc(CCNc2cnccn2)cc1`: over 29.9 µg/mL.
The same measure for `O=C(c1cc(-c2ccccc2)on1)N1CCC2(CC1)OCCO2`: over 47.2 µg/mL; for `CCc1ccc(OCC(=O)N2CCc3ccccc32)cc1`: 0.9 µg/mL (≈ 3.2 µM).
The same measure for `Cc1cc(NC(=O)c2cc(C(C)(C)C)oc2C)no1`: 0.9 µg/mL (≈ 3.43 µM); for `COc1ccc(OCCNC(=O)/C=C/c2ccccc2)cc1`: 4.9 µg/mL (≈ 16.5 µM).
For `Cc1c[nH]c2ccccc12`, the kinetic solubility stood at 6.8 µg/mL (≈ 51.8 µM).
For `S=C1NCN(CCc2ccccc2)CN1Cc1ccccc1`, the kinetic solubility was 0.4 µg/mL (≈ 1.28 µM).
Then `O=C(COC(=O)CNS(=O)(=O)c1cc(C(F)(F)F)ccc1Cl)NC1CC1`, with over 62.2 µg/mL.
Turning to `COc1ccc(C(=O)N2CCN(c3ccccn3)CC2)cc1[N+](=O)[O-]`, the kinetic solubility was determined as 49.5 µg/mL (≈ 145 µM).
The same measure for `Clc1ccccc1CN1CCSCC1`: 1.6 µg/mL (≈ 7.02 µM).
Then `O=C(NCCc1ccccc1)c1ccc(Cl)cc1[N+](=O)[O-]`, with over 45.7 µg/mL.
The compound `Br.CCCN(CCC)C1CCc2cccc(O)c2C1` (stereo not drawn) yielded a solubility (kinetic) of over 49.2 µg/mL.
Then `O=C1CCN(S(=O)(=O)c2ccc(Cl)cc2)CCN1`, with over 43.3 µg/mL; and `Fc1ccc(-c2csc(NC(=S)Nc3ccccc3)n2)cc1`, with 1.6 µg/mL (≈ 4.86 µM).
For the compound `O=C(NCC(=O)N1CCc2ccccc2C1)c1ccccc1Cl`, the kinetic solubility was over 49.3 µg/mL.
Then `COCC1CCCN(C(=O)c2ccc3oc(C(C)C)nc3c2)C1` (stereo not drawn), with 42.2 µg/mL (≈ 133 µM); and `NC(=O)c1cc(S(=O)(=O)NCc2ccc(F)cc2)cs1`, with 47 µg/mL (≈ 150 µM).
`O=C(Nc1c[nH]c(=O)[nH]c1=O)c1cc([N+](=O)[O-])cc([N+](=O)[O-])c1` showed a kinetic solubility of 16.7 µg/mL (≈ 52 µM).
Then `CCn1c(=O)c2c(nc3n2CCCN3c2cccc(C)c2)n(C)c1=O`, with 48.3 µg/mL (≈ 142 µM).
The same measure for `COC(=O)c1cccc(N2C(=O)C3C4C=CC(CC4)C3C2=O)c1` (stereo not drawn): 9.2 µg/mL (≈ 29.5 µM).
The same measure for `COc1ccc(/C=C/c2noc(-c3ccccc3OC(C)=O)n2)cc1`: 0.6 µg/mL (≈ 1.78 µM).
Take `Cc1ccc(-c2ccc(OC(=O)c3ccc(=O)[nH]c3)c(C)c2)cc1`: the kinetic solubility is under 0.7 µg/mL.
Then `N#C/C(=C/c1ccc(O)c(O)c1)C(=O)NCc1ccc(Cl)cc1`, with 44.9 µg/mL (≈ 137 µM); and `CCNC(=O)COC(=O)/C=C/c1cccs1`, with over 35.9 µg/mL; and `Fc1ccc(OCc2nc(-c3cccs3)no2)cc1`, with 0.8 µg/mL (≈ 2.9 µM).
Then `COc1cc(C(=O)NCC(c2cccs2)N2CCOCC2)cc(Br)c1OCc1ccccc1` (stereo not drawn), with 6.3 µg/mL (≈ 11.9 µM).
Then `CC(=O)C(Cc1ccccc1)NC(=O)COC(=O)c1cccc(C)c1[N+](=O)[O-]` (stereo not drawn), with over 57.7 µg/mL.
In the case of `CCOC(=O)N1CCN=C1SCc1ccc(C(F)(F)F)cc1`, the solubility (kinetic) was 13.6 µg/mL (≈ 40.9 µM).
Then `COc1ccc(-c2cc(C(=O)OCC(=O)N3CCCCC3)c3ccccc3n2)cc1OC`, with 13.8 µg/mL (≈ 31.8 µM); and `O=C(CN1C(=O)CCC1=O)Nc1cccc2c1C(=O)NC2=O`, with over 45.2 µg/mL.
`O=c1[nH]c2ccccc2nc1C(F)(F)F` registered a kinetic solubility of over 32.1 µg/mL.
Then `CCOc1ccccc1OCC(=O)Nc1nc2ccccc2[nH]1`, with 4.1 µg/mL (≈ 13.2 µM); and `COc1ccc(CNC(=O)c2c[nH]c3ccccc3c2=O)cc1`, with 4.1 µg/mL (≈ 13.3 µM); and `CN1CCN(c2ccc(F)cc2N)CC1`, with over 31.4 µg/mL.
The same measure for `O=c1[nH]cnc2sc3c(c12)CCC3`: over 28.8 µg/mL; for `CC(C)CN(Cc1cc(=O)oc2cc3c(cc12)CCCC3)CC(C)C`: 1.1 µg/mL (≈ 3.22 µM); for `FC(F)(F)c1cccc(NC2=NCCCS2)c1`: 33.7 µg/mL (≈ 129 µM).
Compound `Fc1cccc(Nc2nc(Cl)nc(Cl)n2)c1` came in with a solubility (kinetic) of 36.2 µg/mL (≈ 140 µM). This solubility kinetic and that of the compound before are within 1.5-fold of each other.
Then `COc1cccc(Nc2nc3cc(OC)ccc3cc2C#N)c1`, with 0.2 µg/mL (≈ 0.655 µM); and `CSC1=NCCN1C(=O)Cc1ccc(-c2ccccc2)cc1`, with 4.1 µg/mL (≈ 13.2 µM).
The same measure for `COc1ccccc1CCNS(=O)(=O)c1cn(C)c(=O)n(C)c1=O`: over 53 µg/mL.
Then `O=C(NC1CCCCC1)c1cc(S(=O)(=O)N2CCN(c3ccccc3)CC2)ccc1Cl`, with 1.5 µg/mL (≈ 3.25 µM).
Consider `O=C(CCCC(=O)N1CCCC1)N1CCCC1`, for which the kinetic solubility worked out at 26.3 µg/mL (≈ 110 µM).
Then `O=C(O)CCn1c(SCCOc2ccccc2F)nc2ccccc21`, with over 54.1 µg/mL.
The same measure for `CC1CC(NC2=NCCS2)CC(C)(C)C1` (stereo not drawn): 24.6 µg/mL (≈ 109 µM); for `O=C(NC(=S)Nc1ccc2nc[nH]c2c1)c1ccccc1`: 35 µg/mL (≈ 118 µM); for `Cc1cccc(NC(=O)COC(=O)[C@@H]2CCCN2C(=O)c2cccs2)c1`: 2.8 µg/mL (≈ 7.52 µM).
The same measure for `Cc1ccc(C)c(C(=O)COC(=O)C(C)N2C(=O)C3C4CCC(C4)C3C2=O)c1` (stereo not drawn): 42 µg/mL (≈ 110 µM); for `COc1ccc(-c2cc(C(=O)Nc3cccc(Cl)c3)no2)cc1`: under 0.4 µg/mL.
In turn, `CC(=O)c1ccc(NC(=O)CN2c3cccc4cccc(c34)S2(=O)=O)cc1` showed a solubility (kinetic) of 7.2 µg/mL (≈ 18.9 µM).
For the compound `O=c1[nH]c(-c2ccccc2)c(-c2ccccc2)nc1[N+](=O)[O-]`, the kinetic solubility worked out at 42.1 µg/mL (≈ 144 µM). This solubility kinetic is about 5.8-fold higher than that of the compound before.
Then `CCn1c(NCCCO)nc2c(c1=O)C(C)(CC)Cc1ccccc1-2` (stereo not drawn), with 47 µg/mL (≈ 138 µM); and `CN(C)S(=O)(=O)c1ccc(C(=O)OCC2COC(C)(C)O2)cc1` (stereo not drawn), with 48.6 µg/mL (≈ 142 µM).
The same measure for `CCCC[N+]12CCC(CC1)C(Cc1ccccc1)C2.[Br-]` (stereo not drawn): over 50.7 µg/mL.
The same measure for `CN(C(=O)CSc1cccc[n+]1[O-])C1CCCCC1`: over 42.1 µg/mL.
In turn, `O=C1CN(S(=O)(=O)c2ccc(F)cc2)c2ccccc2N1` gave a solubility (kinetic) of over 45.9 µg/mL.
With `O=C(Nc1ccccc1F)C(c1ccccc1)c1ccccc1`, the solubility (kinetic) is under 0.7 µg/mL.
Then `CNCc1c(OCc2ccccc2)ccc2ccccc12.Cl`, with 44.9 µg/mL; and `CCOc1ccccc1NC(=O)CN1C(=O)COc2ccc(C)cc21`, with 2.4 µg/mL (≈ 7.05 µM); and `COc1ccc(NS(=O)(=O)c2cccc(C(=O)Nc3ccccc3C(=O)O)c2)cc1`, with over 64 µg/mL.

Values taken from PubChem BioAssay AID1996.
